Experimental findings from patent EP4692094A1 (Beijing Konruns Pharmaceutical Co., Ltd., priority 2023, dated 2024) are described below.

Data set [1] addresses T1, KAT6A (Homo sapiens, UniProt Q92794).
T1 construct: purchased active motife (Active Motif) 81223
Nature of the data set: Enzymatic activity assay for KAT6A acetyltransferase (TR-FRET, acetylation of histone substrate H3). The data set is classed as biochemical. Put shortly: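 TR-FRET detection of biotinylated H3 acetylation by KAT6A with acetyl-CoA; compounds in 10-point 3-fold dilution (0.5% DMSO final) preincubated with enzyme 10 min at 25 °C, then 90 min reaction and 60 min Eu-antibody/ULight-SA detection at 25 °C. HTRF 665/615 ratio normalised to DMSO (0%) and top-dose control (100%); IC50 by nonlinear fit.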
On the technique in general: Time-resolved FRET reads energy transfer from a long-lived donor to a nearby acceptor.

Data set [2] is described as follows: Assay for plasma protein binding rate (equilibrium dialysis), human plasma. The data set is classed as in vitro ADME. The settings on record: dialysis 6 h at 37 °C, read-out: Human (Fu%). Here is the method:
(§1) 1.1 Preparation of compounds: The compounds prepared in the examples were each dissolved in dimethylsulfoxide to give solutions at a concentration of 10 mmol/L. • 1) The example compounds were each diluted from 10 mmol/L stock solution to 0.2 mmol/L, i.e., 1 µL of the compound was added to 49 µL of DMSO; • 2) 3 µL of 0.2 mmol/L test compounds were added to 597 µL of blood plasma, and the mixtures were vortexed at 1000 rpm for 2 min; • 3) 50 µL of the plasma containing the drug in 2) was taken, 50 µL of PBS was added, and 300 µL of methanol internal standard* was added to serve as a sample T0; • 4) 120 µL of the plasma containing the drug in 2) was taken and added to one side of an HTD device membrane, and 120 µL of PBS was added to the other side of the membrane; a breathable film was covered, and the plasma and the residual sample in 2) were balanced at 37 °C (100 rpm and 5% CO2) for 6 h; • 5) 50 µL of the dialyzed plasma side sample was taken, 50 µL of PBS was added, and 300 µL of methanol internal standard* was added to serve as a sample P; • 6) 50 µL of the dialyzed PBS side sample was taken, 50 µL of blank plasma was added, and 300 µL of methanol internal standard* was added to serve as a sample B; • 7) 50 µL of the plasma containing the drug in 2) was taken, 50 µL of PBS was added, and 300 µL of methanol internal standard* was added to serve as a sample T6; • 8) All samples were vortexed, mixed homogeneously, and then centrifuged at 3220 g for 40 min at 4 °C; • 9) 100 µL of the supernatant and 100 µL of purified water were mixed homogenously for liquid chromatography-mass spectrometry.
(§2) An internal standard method was used, and the plasma protein binding rate, recovery rate, and residual percentage were calculated by using Excel according to the ratio of the peak area of the sample to the peak area of the internal standard. Free rate(%) = (RatioB)/(RatioP) × 100% [formula] Binding rate(%) = 100%−Free rate% [formula] Recovery rate(%) = (RatioB + RatioP)/(RatioT0) × 100% [formula] Remaining percentage(%) = (RatioT6)/(RatioT0) × 100% [formula]
(§3) RatioB: a ratio of the peak area of the test substance on the PBS side to the peak area of the internal standard; RatioP: a ratio of the peak area of the test substance on the plasma side to the peak area of the internal standard; RatioT6: a ratio of the peak area of the sample after incubation with the test substance for 6 h to the peak area of the internal standard; RatioT0: a ratio of the peak area of the sample after incubation with the test substance for 0 h to the peak area of the internal standard. Table 8. Plasma protein binding rate (Fu%) data for various species of example compounds
On the technique in general: In equilibrium dialysis only unbound substance equilibrates across the membrane.

Data set [3] in a line: Assay for plasma protein binding rate (equilibrium dialysis), mouse plasma. The data set is classed as in vitro ADME. The conditions noted are these: dialysis 6 h at 37 °C, read-out: Mouse (Fu%). How it is done: as §1, §2, §3
A short description of data set [4]: In-vivo pharmacokinetic study in rats. The conditions noted are these: female, SD, rat, plasma, po, intragastric administration, 5 mg/kg; for AUC(0-t): read-out: AUC0-24h. Further details: species or system SD female rats. How it is done:
1.1 Instrument: high-performance liquid chromatograph: SHIMADZU LC-30AD; mass spectrum: AB SCIEX mass spectrometer Triple Quad 5500; all measured data were calculated and processed using Microsoft Excel, and relevant pharmacokinetic parameters were calculated using WinNonlin software. The main obtained kinetic parameters are Tmax, T1/2, Cmax, AUC0-24 h, and AUCinf. […] Sample injection amount: 1 µL.
1.2 Animals: three SD female rats were used. The body weight range was 180-300 g. After purchase, the rats were bred in the experimental animal center for two days for later use. The rats were fasted 12 h before administration and 4 h after administration, and given ad libitum access to water during the assay. Blood samples were taken at predetermined time points after intragastric administration.
1.3 Vehicle: 0.5% HPMC (hydroxypropyl methylcellulose) + 0.4% Tween80 + 99.1% water. Preparation of intragastric administration solution: The compound was precisely weighed, the vehicle was added, and then the drug was completely dissolved by ultrasonication at room temperature for 5 min and prepared into a 0.5 mg/mL solution. After the intragastric administration, blood samples were taken at 0.083 h, 0.25 h, 0.5 h, 1.0 h, 2.0 h, 4.0 h, 7.0 h, and 24 h. The blood collection mode is as follows: 0.2 mL of the jugular vein blood was collected, EDTA-K2 was used as an anticoagulation agent, the collected blood sample was transferred into a microcentrifuge tube containing the anticoagulation agent, and the tube was centrifuged at 4 °C and 4000 g for 5 min to separate the plasma. All plasma samples collected were stored at -75±15 °C until analysis.
The compound was precisely weighed and prepared into a standard curve working solution and a quality control working solution at different concentrations. The blank plasma was added and prepared into a plasma standard curve and a quality control sample. LC/MS/MS analysis was performed after pretreatment using a protein precipitation method, and then the concentration of the compounds described above in the plasma was measured. All measured data were collected and processed by the relevant software, and pharmacokinetic parameters were calculated using Winnonlin software. Table 9. Pharmacokinetic parameters of some compounds in the examples in rats

Data set [5] is described as follows: Assay for plasma protein binding rate (equilibrium dialysis), rat plasma. The conditions noted are these: dialysis 6 h at 37 °C, read-out: Rat (Fu%). Format: in vitro ADME. Here is the method:
as §1, §2, §3

Data set [6] can be described thus: Assay for plasma protein binding rate (equilibrium dialysis), dog plasma. The conditions noted are these: dialysis 6 h at 37 °C, read-out: Dog (Fu%). Format: in vitro ADME. Here is the method: as §1, §2, §3

T1 sequence (Q92794 whole entry): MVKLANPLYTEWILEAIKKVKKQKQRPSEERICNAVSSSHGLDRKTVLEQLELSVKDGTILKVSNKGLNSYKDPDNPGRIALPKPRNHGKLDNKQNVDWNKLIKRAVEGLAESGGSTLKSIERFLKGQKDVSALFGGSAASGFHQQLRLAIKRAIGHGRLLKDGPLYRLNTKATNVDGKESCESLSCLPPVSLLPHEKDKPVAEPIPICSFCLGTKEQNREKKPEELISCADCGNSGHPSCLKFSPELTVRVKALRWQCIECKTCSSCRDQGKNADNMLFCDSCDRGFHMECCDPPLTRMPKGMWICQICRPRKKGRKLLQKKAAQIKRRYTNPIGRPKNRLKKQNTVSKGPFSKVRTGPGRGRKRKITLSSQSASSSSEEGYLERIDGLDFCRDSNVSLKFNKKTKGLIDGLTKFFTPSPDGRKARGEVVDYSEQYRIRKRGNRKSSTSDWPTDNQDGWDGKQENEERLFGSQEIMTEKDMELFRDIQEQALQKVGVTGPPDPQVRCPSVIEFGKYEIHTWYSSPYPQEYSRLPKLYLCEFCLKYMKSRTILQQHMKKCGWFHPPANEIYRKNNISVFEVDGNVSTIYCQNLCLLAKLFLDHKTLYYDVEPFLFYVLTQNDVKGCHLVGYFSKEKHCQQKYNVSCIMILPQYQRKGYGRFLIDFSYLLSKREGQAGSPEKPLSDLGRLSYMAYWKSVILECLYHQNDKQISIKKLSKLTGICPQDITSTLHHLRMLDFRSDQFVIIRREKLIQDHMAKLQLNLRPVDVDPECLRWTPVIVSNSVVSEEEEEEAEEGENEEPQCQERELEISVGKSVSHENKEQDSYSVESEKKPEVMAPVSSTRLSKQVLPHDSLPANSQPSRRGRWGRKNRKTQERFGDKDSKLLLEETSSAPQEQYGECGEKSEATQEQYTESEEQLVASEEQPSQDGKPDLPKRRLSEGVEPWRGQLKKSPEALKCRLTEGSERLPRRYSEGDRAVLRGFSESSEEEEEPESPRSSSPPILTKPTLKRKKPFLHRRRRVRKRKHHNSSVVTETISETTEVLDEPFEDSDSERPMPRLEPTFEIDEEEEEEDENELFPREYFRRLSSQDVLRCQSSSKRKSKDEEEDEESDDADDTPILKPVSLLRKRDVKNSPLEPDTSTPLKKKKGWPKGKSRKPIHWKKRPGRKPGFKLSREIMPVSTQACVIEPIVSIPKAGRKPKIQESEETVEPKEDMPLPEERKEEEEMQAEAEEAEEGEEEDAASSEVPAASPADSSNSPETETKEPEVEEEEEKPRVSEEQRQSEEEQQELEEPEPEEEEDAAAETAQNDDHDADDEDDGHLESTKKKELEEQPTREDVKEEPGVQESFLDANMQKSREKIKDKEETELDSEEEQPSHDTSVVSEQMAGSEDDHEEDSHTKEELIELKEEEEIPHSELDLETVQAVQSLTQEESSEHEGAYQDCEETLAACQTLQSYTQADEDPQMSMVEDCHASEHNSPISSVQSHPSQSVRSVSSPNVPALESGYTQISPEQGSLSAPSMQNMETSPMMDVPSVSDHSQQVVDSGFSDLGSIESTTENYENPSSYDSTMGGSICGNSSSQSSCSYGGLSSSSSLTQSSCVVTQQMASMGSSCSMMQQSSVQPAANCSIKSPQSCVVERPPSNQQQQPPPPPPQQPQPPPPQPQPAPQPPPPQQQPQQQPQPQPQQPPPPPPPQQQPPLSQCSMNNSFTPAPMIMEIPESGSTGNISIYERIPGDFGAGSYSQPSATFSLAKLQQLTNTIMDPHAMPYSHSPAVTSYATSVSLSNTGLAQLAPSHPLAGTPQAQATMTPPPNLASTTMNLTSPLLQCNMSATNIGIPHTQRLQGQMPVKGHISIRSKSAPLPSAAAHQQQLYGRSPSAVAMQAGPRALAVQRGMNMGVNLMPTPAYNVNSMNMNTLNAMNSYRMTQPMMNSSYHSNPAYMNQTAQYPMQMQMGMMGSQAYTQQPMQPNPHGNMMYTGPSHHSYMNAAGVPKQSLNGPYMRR

As usually defined, the IC50 is the concentration at which inhibition is half-maximal. A high value points to weaker potency in that assay. The term AUC(0-inf) denotes total exposure, with the tail of the curve extrapolated. Read a low AUC(0-inf) as less exposure. Broadly, the Cmax is the maximum level reached in the sampled fluid or tissue. As a reminder, the Tmax is the time at which the peak concentration occurs. The compound `COc1cc2cccnc2cc1S(=O)(=O)Nc1noc2cc(Cn3cccn3)nc(OC)c12` [Example 75, N-(6-((1H-Pyrazol-1-yl)methyl)-4-methoxyisoxazolo[4,5-c]pyridin-3-yl)-6-methoxyquinoline-7-sulfonamide] came in with an IC50 in data set [1] of 2.41 nM. Also, in data set [2], the fraction unbound at 6 h, 1 µM was found to be 0.0091. Also, the fraction unbound at 6 h, 1 µM in data set [3] is 0.0163. In addition, in data set [4], the AUC(0-inf) was found to be 30600 ng·h/mL, the Cmax amounted to 10800 ng/mL, the Tmax came out at 0.25 h and the AUC(0-t) was found to be 30600 ng·h/mL.
Take `COc1cc2ccoc2cc1S(=O)(=O)Nc1noc2cc(Cn3cccn3)nc(OC)c12` [Example 44, N-(6-((1H-Pyrazol-1-yl)methyl)-4-methoxyisoxazolo[4,5-c]pyridin-3-yl)-5-methoxybenzofuran-6-sulfonamide]: the IC50 in data set [1] is 8.28 nM. Besides, the fraction unbound at 6 h, 1 µM in data set [2] came to 0.0149; in data set [3], 0.048; in data set [5] it was 0.0176; in data set [6] it was 0.0023.
Consider `COc1nc(Cn2cccn2)cc2onc(NS(=O)(=O)c3cccc4c3OCO4)c12` [Example 28, N-(6-((1H-Pyrazol-1-yl)methyl)-4-methoxyisoxazolo[4,5-c]pyridin-3-yl)-1,3-benzodioxole-4-sulfonamide], for which the IC50 in data set [1] worked out at 3.55 nM. The fraction unbound at 6 h, 1 µM in data set [2] is 0.0086; in data set [3] it was 0.0205.
On to `COc1cc2c(cc1S(=O)(=O)Nc1noc3cc(Cn4cccn4)nc(OC)c13)OCO2` [Example 57, N-(6-((1H-Pyrazol-1-yl)methyl)-4-methoxyisoxazolo[4,5-c]pyridin-3-yl)-6-methoxy-1,3-benzodioxole-5-sulfonamide], for which the IC50 in data set [1] is 0.95 nM. Besides, the fraction unbound at 6 h, 1 µM in data set [2] was determined as 0.0264; in data set [3] it was 0.0565.
The matching figures for `COc1ccc2occc2c1S(=O)(=O)Nc1noc2cc(Cn3cccn3)nc(OC)c12` [Example 45, N-(6-((1H-Pyrazol-1-yl)methyl)-4-methoxyisoxazolo[4,5-c]pyridin-3-yl)-5-methoxybenzofuran-4-sulfonamide]: 9.45 nM, 0.0066 and 0.0145.
`COc1cc2c(cc1S(=O)(=O)Nc1noc3cc(Cn4cccn4)nc(OC)c13)CCO2` [Example 60, N-(6-((1H-Pyrazol-1-yl)methyl)-4-methoxyisoxazolo[4,5-c]pyridin-3-yl)-6-methoxy-2,3-dihvdrobenzofuran-5-sulfonamide] came in with an IC50 in data set [1] of 1.01 nM. Also, the fraction unbound at 6 h, 1 µM in data set [2] was 0.0175. For the same compound, the fraction unbound at 6 h, 1 µM in data set [3] was 0.0358. Moreover, in data set [5], the fraction unbound at 6 h, 1 µM was 0.0516. In addition, the fraction unbound at 6 h, 1 µM in data set [6] was 0.0345. Moreover, in data set [4], the AUC(0-inf) worked out at 26700 ng·h/mL, the Cmax worked out at 2310 ng/mL, the Tmax was 2.67 h and the AUC(0-t) was 26200 ng·h/mL.
